Laboratory results published in ChEMBL document CHEMBL4152339, “Design and synthesis of novel 1H-tetrazol-5-amine based potent antimicrobial agents: DNA topoisomerase IV and gyrase affinity evaluation supported by molecular docking studies” (Eur J Med Chem, 2018).
In brackets after ≈: the same amount, converted by molar mass.

Assays:
[1] = system: Staphylococcus aureus; assay: Antibacterial activity against Staphylococcus aureus NCTC 4163 after 18 hrs by CLSI disc diffusion method; type: functional; details: NCTC 4163, 18 h
[2] = system: Staphylococcus aureus; assay: Antibacterial activity against Staphylococcus aureus ATCC 25923 after 18 hrs by CLSI disc diffusion method; type: functional; details: ATCC 25923, 18 h
[3] = system: Staphylococcus aureus; assay: Antibacterial activity against Staphylococcus aureus ATCC 6538 after 18 hrs by CLSI disc diffusion method; type: functional; details: ATCC 6538, 18 h
[4] = system: Staphylococcus epidermidis; assay: Antibacterial activity against Staphylococcus epidermidis ATCC 12228 after 18 hrs by CLSI disc diffusion method; type: functional; details: ATCC 12228, 18 h
[5] = system: Staphylococcus epidermidis; assay: Antibacterial activity against Staphylococcus epidermidis ATCC 35984 after 18 hrs by CLSI […] method; type: functional; details: ATCC 35984, 18 h
[6] = system: Bacillus spizizenii; assay: Antibacterial activity against Bacillus subtilis ATCC 6633 after 18 hrs by CLSI disc diffusion method; type: functional; details: ATCC 6633, 18 h
[7] = system: Bacillus cereus; assay: Antibacterial activity against Bacillus cereus ATCC 11778 after 18 hrs by CLSI disc diffusion method; type: functional; details: ATCC 11778, 18 h
[8] = system: Enterococcus hirae; assay: Antibacterial activity against Enterococcus hirae ATCC 10541 after 18 hrs by CLSI disc diffusion method; type: functional; details: ATCC 10541, 18 h
[9] = system: Enterococcus faecalis; assay: Antibacterial activity against Enterococcus faecalis ATCC 29212 after 18 hrs by CLSI disc diffusion method; type: functional; details: ATCC 29212, 18 h
[10] = system: Micrococcus luteus; assay: Antibacterial activity against Micrococcus luteus ATCC 10240 after 18 hrs by CLSI disc diffusion method; type: functional; details: ATCC 10240, 18 h
[11] = system: Micrococcus luteus; assay: Antibacterial activity against Micrococcus luteus ATCC 9341 after 18 hrs by CLSI disc diffusion method; type: functional; details: ATCC 9341, 18 h
[12] = system: Escherichia coli; assay: Antibacterial activity against Escherichia coli ATCC 10538 after 18 hrs by CLSI disc diffusion method; type: functional; details: ATCC 10538, 18 h
[13] = system: Proteus vulgaris; assay: Antibacterial activity against Proteus vulgaris NCTC 4635 after 18 hrs by CLSI disc diffusion method; type: functional; details: NCTC 4635, 18 h
[14] = system: Pseudomonas aeruginosa; assay: Antibacterial activity against Pseudomonas aeruginosa ATCC 15442 after 18 hrs by CLSI disc diffusion method; type: functional; details: ATCC 15442, 18 h
[15] = system: Pseudomonas aeruginosa; assay: Antibacterial activity against Pseudomonas aeruginosa ATCC 27853 after 18 hrs by CLSI disc diffusion method; type: functional; details: ATCC 27853, 18 h
[16] = system: Bordetella bronchiseptica; assay: Antibacterial activity against Bordetella bronchiseptica ATCC 4617 after 18 hrs by CLSI disc diffusion method; type: functional; details: ATCC 4617, 18 h
[17] = system: A549; assay: Cytotoxicity activity against human A549 cells assessed as reduction in cell viability after 72 hrs by MTT assay; type: cell-based; details: A549, 72 h
[18] = system: HaCaT; assay: Cytotoxicity activity against human HaCaT cells assessed as reduction in cell viability after 72 hrs by MTT assay; type: cell-based
[19] = Selectivity index, ratio of IC50 for human HaCaT cells to MIC for Staphylococcus aureus NCTC 4163; type: toxicity; details: read-out: Selectivity Index
[20] = Selectivity index, ratio of IC50 for human HaCaT cells to MIC for Bacillus subtilis ATCC 6633; type: toxicity; details: read-out: Selectivity Index
[21] = Selectivity index, ratio of IC50 for human HaCaT cells to MIC for Enterococcus hirae ATCC 10541; type: toxicity; details: read-out: Selectivity Index
[22] = Selectivity index, ratio of IC50 for human HaCaT cells to MIC for Micrococcus luteus ATCC 10240; type: toxicity; details: read-out: Selectivity Index
[23] = Selectivity index, ratio of IC50 for human HaCaT cells to MIC for Escherichia coli ATCC 10538; type: toxicity; details: read-out: Selectivity Index
[24] = Selectivity index, ratio of IC50 for human HaCaT cells to MIC for Proteus vulgaris NCTC 4635; type: toxicity; details: read-out: Selectivity Index
[25] = Selectivity index, ratio of IC50 for human HaCaT cells to MIC for Bordetella bronchiseptica ATCC 4617; type: toxicity; details: read-out: Selectivity Index

Compound | MIC [1] [µM] | MIC [2] [µM] | MIC [3] [µM] | MIC [4] [µM] | MIC [5] [µM] | MIC [6] [µM] | MIC [7] [µM] | MIC [8] [µM] | MIC [9] [µM] | MIC [10] [µM] | MIC [11] [µM] | MIC [12] [µM] | MIC [13] [µM] | MIC [14] [µM] | MIC [15] [µM] | MIC [16] [µM] | IC50 [17] [µM] | IC50 [18] [µM] | selectivity ratio [19] | selectivity ratio [20] | also measured
O=C(O)n1nnnc1NCCc1c[nH]c2ccccc12 | 59 (≈ 16.1 µg/mL) | 15 (≈ 4.08 µg/mL) | 15 (≈ 4.08 µg/mL) | 29 (≈ 7.9 µg/mL) | 15 (≈ 4.08 µg/mL) | 15 (≈ 4.08 µg/mL) | 7 (≈ 1.91 µg/mL) | 29 (≈ 7.9 µg/mL) | 59 (≈ 16.1 µg/mL) | 15 (≈ 4.08 µg/mL) | 15 (≈ 4.08 µg/mL) | 29 (≈ 7.9 µg/mL) | 15 (≈ 4.08 µg/mL) | 471 (≈ 128 µg/mL) | 471 (≈ 128 µg/mL) | 29 (≈ 7.9 µg/mL) | – | – | – | – | –
O=[N+]([O-])c1ccc(-n2nnnc2Nn2cnnc2)cc1 | 7 (≈ 1.91 µg/mL) | 7 (≈ 1.91 µg/mL) | 7 (≈ 1.91 µg/mL) | 4 (≈ 1.09 µg/mL) | 4 (≈ 1.09 µg/mL) | 29 (≈ 7.92 µg/mL) | 29 (≈ 7.92 µg/mL) | 29 (≈ 7.92 µg/mL) | 234 (≈ 63.9 µg/mL) | 59 (≈ 16.1 µg/mL) | 59 (≈ 16.1 µg/mL) | 117 (≈ 32 µg/mL) | 117 (≈ 32 µg/mL) | 938 (≈ 256 µg/mL) | 938 (≈ 256 µg/mL) | 117 (≈ 32 µg/mL) | 60 | 65 | 9.28 | 2.24 | selectivity ratio [21]: 2.24; selectivity ratio [22]: 1.1; selectivity ratio [23]: 0.55; selectivity ratio [24]: 0.55; selectivity ratio [25]: 0.55
Fc1ccc(-n2nnnc2Nn2cnnc2)cc1 | 65 (≈ 16 µg/mL) | 65 (≈ 16 µg/mL) | 33 (≈ 8.12 µg/mL) | 33 (≈ 8.12 µg/mL) | 16 (≈ 3.94 µg/mL) | 65 (≈ 16 µg/mL) | 65 (≈ 16 µg/mL) | 65 (≈ 16 µg/mL) | 8 (≈ 1.97 µg/mL) | 2 (≈ 0.492 µg/mL) | 2 (≈ 0.492 µg/mL) | 16 (≈ 3.94 µg/mL) | 8 (≈ 1.97 µg/mL) | 1040 (≈ 256 µg/mL) | 1040 (≈ 256 µg/mL) | 130 (≈ 32 µg/mL) | 80 | 84 | 1.29 | 1.29 | selectivity ratio [21]: 2.89; selectivity ratio [22]: 1.47; selectivity ratio [23]: 1.47; selectivity ratio [24]: 1.47; selectivity ratio [25]: 0.09
FC(F)(F)c1ccc(-n2nnnc2Nc2nccs2)cc1 | 51 (≈ 15.9 µg/mL) | 26 (≈ 8.12 µg/mL) | 51 (≈ 15.9 µg/mL) | 13 (≈ 4.06 µg/mL) | 6 (≈ 1.87 µg/mL) | 26 (≈ 8.12 µg/mL) | 26 (≈ 8.12 µg/mL) | 51 (≈ 15.9 µg/mL) | 51 (≈ 15.9 µg/mL) | 51 (≈ 15.9 µg/mL) | 6 (≈ 1.87 µg/mL) | 411 (≈ 128 µg/mL) | 411 (≈ 128 µg/mL) | 411 (≈ 128 µg/mL) | 411 (≈ 128 µg/mL) | 205 (≈ 64 µg/mL) | 76 | 80 | 1.56 | 3.07 | selectivity ratio [21]: 1.56; selectivity ratio [22]: 1.56; selectivity ratio [23]: 0.19; selectivity ratio [24]: 0.19; selectivity ratio [25]: 0.39
Brc1ccc(-n2nnnc2Nn2cnnc2)cc1 | 52 (≈ 16 µg/mL) | 52 (≈ 16 µg/mL) | 52 (≈ 16 µg/mL) | 26 (≈ 7.98 µg/mL) | 13 (≈ 3.99 µg/mL) | 26 (≈ 7.98 µg/mL) | 26 (≈ 7.98 µg/mL) | 52 (≈ 16 µg/mL) | 52 (≈ 16 µg/mL) | 26 (≈ 7.98 µg/mL) | 26 (≈ 7.98 µg/mL) | 52 (≈ 16 µg/mL) | 13 (≈ 3.99 µg/mL) | 834 (≈ 256 µg/mL) | 834 (≈ 256 µg/mL) | 209 (≈ 64.2 µg/mL) | 62 | 65 | 1.25 | 2.5 | selectivity ratio [21]: 1.25; selectivity ratio [22]: 2.5; selectivity ratio [23]: 1.25; selectivity ratio [24]: 5; selectivity ratio [25]: 0.31
COc1cccc2c1C(=O)c1c(O)c3c(c(O)c1C2=O)C[C@@](O)(C(=O)CO)C[C@@H]3O[C@H]1C[C@H](N)[C@H](O)[C@H](C)O1 [DOXORUBICIN] | – | – | – | – | – | – | – | – | – | – | – | – | – | – | – | – | 0.63 | 1.09 | – | – | –
